Where two headings read alike, the source gives them in different places.

We go through four compounds from patent US10518266B2, “Microtiter plate and uses thereof” (ONEXIO BIOSYSTEMS LLC, priority 2016, dated 2019).

Common to all, as to assay type: cell-based
Data set [1] has as its system ER-transactivation in MVLNs. Kind of data set: ER-transactivation in MVLN luciferase cells co-cultured with HepaRG cells in the device. Particulars: MVLN co-cultured with HepaRG vs mono-culture; FIG. 18C.
Data set [2] concerns HEK293 cells.
Data set [3] has as its system HEK293 cells. Kind of data set: Conferred cytotoxicity assay, HEK293 cells in co-culture with primary human hepatocytes in the device. Particulars: primary human hepatocytes (PHH) as bioactivator vs HEK293 mono-culture; FIG. 18a,b.
In data set [4] the test system is estrogen receptor driven luciferase reporter protein stably expressed in the MVLN cell line. Put plainly: MVLN estrogen receptor driven luciferase reporter assay, co-culture with HepG2 cells in the device. In general terms: In a reporter assay the amount or activity of a reporter protein is the signal.

In the case of `Oc1ccc(Cc2ccccc2)cc1` [4-benzylphenol], in data set [1], the “ER-transactivation in MVLNs (metabolic competence of the device)” value is on record as “shows competence”.
As to `COc1cc2c(c3oc(=O)c4c(c13)CCC4=O)[C@@H]1C=CO[C@@H]1O2` [aflatoxin], the “conferred toxicity to HEK293 cells” value in data set [2] was “conferred toxicity”.
`COc1cccc2c1C(=O)c1c(O)c3c(c(O)c1C2=O)C[C@@](O)(C(=O)CO)C[C@@H]3O[C@H]1C[C@H](N)[C@H](O)[C@H](C)O1` [doxorubicin]: the “conferred toxicity to HEK293 cells” value in data set [3] is given as “conferred toxicity”.
Regarding `C[C@]12CC[C@H]3[C@@H](CCC4=CC(=O)CC[C@@]43C)[C@@H]1CC[C@@H]2O` [testosterone], in data set [4], the MVLN reporter activity entry is “activates MVLN reporter activity”.
